Measurements reported in ChEMBL document CHEMBL1201862, “PubChem BioAssay data set” (2004).
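Five concentrations, 48 hours, 96-well plates. Abbreviation: GI50, concentration required for 50% inhibition of growth.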 Calls of active or inactive are those of the source. No stated cut-off is given here; in the data, active = GI50 up to about 1.1 µM and inactive = higher.

What was measured:
Assay in all cases: NCI tumour cell line growth inhibition, 48 h
SF-539 = system: SF-539
RXF 393 = system: RXF 393
HCT-116 = system: HCT-116
NCI/ADR-RES = system: NCI/ADR-RES
UO-31 = system: UO-31
RPMI-8226 = system: RPMI-8226
SNB-19 = system: SNB-19
OVCAR-8 = system: OVCAR-8
HT-29 = system: HT-29
ACHN = system: ACHN
HOP-92 = system: HOP-92
SK-MEL-28 = system: SK-MEL-28
MDA-MB-435 = system: MDA-MB-435
HCT-15 = system: HCT-15
SN12C = system: SN12C
DU-145 = system: DU-145
NCI-H460 = system: NCI-H460
BT-549 = system: BT-549
SK-OV-3 = system: SK-OV-3

SMILES	GI50 (SF-539)	GI50 (RXF 393)	GI50 (HCT-116)	GI50 (NCI/ADR-RES)	GI50 (UO-31)	GI50 (RPMI-8226)	GI50 (SNB-19)	GI50 (OVCAR-8)	GI50 (HT-29)	GI50 (ACHN)	GI50 (HOP-92)	GI50 (SK-MEL-28)	GI50 (MDA-MB-435)	GI50 (HCT-15) [µM]	GI50 (SN12C)	GI50 (DU-145)	GI50 (NCI-H460)	GI50 (BT-549)	GI50 (SK-OV-3)
CC(ON(C(c1ccccc1)C(C)C)C(C)(C)C)c1ccccc1 (configuration not stated)	21.6 µM (inactive)	16.3 µM (inactive)	14.7 µM (inactive)	23.1 µM (inactive)	24.5 µM (inactive)	29.5 µM (inactive)	18.5 µM (inactive)	21.8 µM (inactive)	18.9 µM (inactive)	15.8 µM (inactive)	20.6 µM (inactive)	20.4 µM (inactive)	25.5 µM (inactive)	61.8	16.8 µM (inactive)	18.5 µM (inactive)	18.1 µM (inactive)	12.6 µM (inactive)	39.3 µM (inactive)
C/C(=N\Nc1nc2cc(C(F)(F)F)ccc2s1)c1ccccn1	1.42 µM (inactive)	1.36 µM (inactive)	0.0783 µM (active)	0.291 µM (active)	0.0316 µM (active)	0.402 µM (active)	0.968 µM (active)	0.0621 µM (active)	0.0422 µM (active)	0.113 µM (active)	0.593 µM (active)	0.211 µM (active)	0.469 µM (active)	0.0993	0.23 µM (active)	0.401 µM (active)	0.452 µM (active)	3.35 µM (inactive)	0.245 µM (active)
Cc1cc([C@H](C#N)c2nc3ccccc3[nH]2)nc(Cl)n1	61.9 µM (inactive)	33.3 µM (inactive)	37.8 µM (inactive)	30.1 µM (inactive)	35.6 µM (inactive)	5.65 µM (inactive)	71.6 µM (inactive)	30.4 µM (inactive)	41.7 µM (inactive)	38.2 µM (inactive)	20.1 µM (inactive)	39.1 µM (inactive)	30.4 µM (inactive)	25.8	51.2 µM (inactive)	30.6 µM (inactive)	24.5 µM (inactive)	53.6 µM (inactive)	> 100 µM (inactive)
CCC(/C=C/c1ccccc1)=N\NC(=S)N/N=C(/C=C/c1ccccc1)CC	31.5 µM (inactive)	38.5 µM (inactive)	19 µM (inactive)	29.6 µM (inactive)	13 µM (inactive)	35.5 µM (inactive)	63 µM (inactive)	20.4 µM (inactive)	55.1 µM (inactive)	34.2 µM (inactive)	83.9 µM (inactive)	> 100 µM (inactive)	46.5 µM (inactive)	26.5	36.6 µM (inactive)	26.1 µM (inactive)	13.2 µM (inactive)	> 100 µM (inactive)	20.1 µM (inactive)
O=C(CCc1cc(O)cc(O)c1)NCCc1cc(O)cc(O)c1	> 100 µM (inactive)	> 100 µM (inactive)	> 100 µM (inactive)	> 100 µM (inactive)	> 100 µM (inactive)	> 100 µM (inactive)	> 100 µM (inactive)	> 100 µM (inactive)	> 100 µM (inactive)	> 100 µM (inactive)	> 100 µM (inactive)	> 100 µM (inactive)	> 100 µM (inactive)	> 100	> 100 µM (inactive)	> 100 µM (inactive)	> 100 µM (inactive)	> 100 µM (inactive)	> 100 µM (inactive)
COc1ccc2c(c1)[nH]c1c(/C=C/c3ccccc3)nccc12	13 µM (inactive)	14.8 µM (inactive)	12.1 µM (inactive)	11 µM (inactive)	10.4 µM (inactive)	13.3 µM (inactive)	16 µM (inactive)	14.2 µM (inactive)	10 µM (inactive)	12.2 µM (inactive)	18.6 µM (inactive)	14.9 µM (inactive)	16.2 µM (inactive)	11.5	14.2 µM (inactive)	20.5 µM (inactive)	13.2 µM (inactive)	12.8 µM (inactive)	13.8 µM (inactive)
Cc1ccc(N2C(=O)C(=O)N(/N=C3\C(=O)Nc4ccccc43)C2=S)cc1	> 100 µM (inactive)	39.1 µM (inactive)	65.8 µM (inactive)	28.8 µM (inactive)	> 100 µM (inactive)	40.6 µM (inactive)	> 100 µM (inactive)	59.3 µM (inactive)	58.6 µM (inactive)	67.6 µM (inactive)	> 100 µM (inactive)	> 100 µM (inactive)	36.6 µM (inactive)	39.8	> 100 µM (inactive)	> 100 µM (inactive)	31.5 µM (inactive)	85.3 µM (inactive)	> 100 µM (inactive)
CC(=O)[C@@]1(C)CC2(CCN(C)CC2)OC1C (some centres not stated)	> 100 µM (inactive)	> 100 µM (inactive)	> 100 µM (inactive)	> 100 µM (inactive)	> 100 µM (inactive)	> 100 µM (inactive)	> 100 µM (inactive)	> 100 µM (inactive)	> 100 µM (inactive)	> 100 µM (inactive)	> 100 µM (inactive)	> 100 µM (inactive)	> 100 µM (inactive)	> 100	> 100 µM (inactive)	> 100 µM (inactive)	> 100 µM (inactive)	> 100 µM (inactive)	> 100 µM (inactive)
Cc1nc2sccn2c1/C=C1/C(=O)Nc2cccc(Cl)c21	> 100 µM (inactive)	> 100 µM (inactive)	89.9 µM (inactive)	34.2 µM (inactive)	> 100 µM (inactive)	> 100 µM (inactive)	> 100 µM (inactive)	> 100 µM (inactive)	56.2 µM (inactive)	> 100 µM (inactive)	> 100 µM (inactive)	> 100 µM (inactive)	11.6 µM (inactive)	47.2	> 100 µM (inactive)	> 100 µM (inactive)	92 µM (inactive)	> 100 µM (inactive)	> 100 µM (inactive)
COc1c(C)c(C/C=C(\C)CCCCO[Si](c2ccccc2)(c2ccccc2)C(C)(C)C)c(OC)c(OC)c1OC	> 46.5 µM (inactive)	> 100 µM (inactive)	35.5 µM (inactive)	27 µM (inactive)	9.27 µM (inactive)	39.9 µM (inactive)	> 46.5 µM (inactive)	20.2 µM (inactive)	> 46.5 µM (inactive)	16.2 µM (inactive)	> 31.6 µM (inactive)	> 100 µM (inactive)	> 46.5 µM (inactive)	> 46.5	27.7 µM (inactive)	27.9 µM (inactive)	14.6 µM (inactive)	> 46.5 µM (inactive)	> 46.5 µM (inactive)
CC1(C)CCC(C)(C)c2cc(NC(=O)c3ccc(C(=O)O)cc3)ccc21 [TAMIBAROTENE]	17.7 µM (inactive)	26.9 µM (inactive)	18.7 µM (inactive)	31.9 µM (inactive)	17.2 µM (inactive)	20.4 µM (inactive)	32.8 µM (inactive)	41.5 µM (inactive)	25.8 µM (inactive)	36.5 µM (inactive)	24.7 µM (inactive)	> 48.3 µM (inactive)	25.9 µM (inactive)	26.9	25.5 µM (inactive)	23.8 µM (inactive)	21.3 µM (inactive)	25.7 µM (inactive)	28 µM (inactive)
CN1c2ccccc2C2c3c(O)ccc(O)c3C=C([N+](=O)[O-])C21 (configuration not stated)	1.44 µM (inactive)	3.91 µM (inactive)	0.205 µM (active)	1.04 µM (active)	0.521 µM (active)	1.11 µM (active)	0.619 µM (active)	0.286 µM (active)	0.136 µM (active)	0.679 µM (active)	2.28 µM (inactive)	2.03 µM (inactive)	0.199 µM (active)	1.08	0.312 µM (active)	1.44 µM (inactive)	1.9 µM (inactive)	5.36 µM (inactive)	3.72 µM (inactive)
CCCCC(=C=C(C)CO)C1CCCN1C(=O)OC(C)(C)C (configuration not stated)	16.9 µM (inactive)	15.2 µM (inactive)	15.6 µM (inactive)	16.8 µM (inactive)	22.9 µM (inactive)	13.9 µM (inactive)	23.3 µM (inactive)	18.2 µM (inactive)	17.5 µM (inactive)	24.8 µM (inactive)	12.7 µM (inactive)	18.4 µM (inactive)	18.8 µM (inactive)	17.9	17.3 µM (inactive)	18.1 µM (inactive)	16.1 µM (inactive)	16.1 µM (inactive)	24.5 µM (inactive)
CCCCCCCCCc1cccc(N2C(N)=NC(N)=NC2(C)C)c1	0.0339 µM (active)	1.95 µM (inactive)	< 0.01 µM (active)	4.62 µM (inactive)	1.93 µM (inactive)	0.0112 µM (active)		< 0.01 µM (active)	< 0.01 µM (active)	< 0.0158 µM (active)	1.58 µM (inactive)	0.871 µM (active)	0.0165 µM (active)	< 0.01	0.0198 µM (active)	< 0.0307 µM (active)	< 0.01 µM (active)	1 µM (active)	1.62 µM (inactive)
COc1cc(C2c3cc(O)c(OC)cc3C3OCC2C3CO)ccc1O (configuration not stated)	> 100 µM (inactive)	> 100 µM (inactive)	76.9 µM (inactive)	> 100 µM (inactive)	> 100 µM (inactive)	> 100 µM (inactive)	> 100 µM (inactive)		> 100 µM (inactive)	> 100 µM (inactive)	7.6 µM (inactive)	> 100 µM (inactive)	> 100 µM (inactive)	> 100		> 100 µM (inactive)	> 100 µM (inactive)	> 100 µM (inactive)	> 100 µM (inactive)
